# Results published in PubChem BioAssay AID270 (DTP/NCI, 2004).
# “And” between values parts separate entries of the source, which are not always exact repeats. Equal values may be shown once. Results filed as inconclusive are left out.
# Test system: BDF1 mice, s.c. Lewis lung carcinoma, T/C %
# Experiment: NCI In Vivo Anticancer Drug Screen. Data for tumor model Lewis Lung Carcinoma (subcutaneous) in B6D2F1 (BDF1) mice
# Outline: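 First, mice carry a transplantable tumor. Next, groups receive either compound or vehicle. Finally, survival or tumor dimensions in the dosed animals are divided by the corresponding control figure.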
# [1] = endpoint: mean tumor weight, dose: 25.0 mg/kg/injection, schedule: Q01DX011 (ip), vehicle: saline, higher = larger tumour
# [2] = endpoint: mean tumor weight, dose: 50.0 mg/kg/injection, schedule: Q01DX011 (ip), vehicle: saline, higher = larger tumour
# [3] = endpoint: mean tumor weight, dose: 100.0 mg/kg/injection, schedule: Q01DX011 (ip), vehicle: saline, higher = larger tumour
# [4] = endpoint: mean tumor weight, dose: 200.0 mg/kg/injection, schedule: Q01DX011 (ip), vehicle: saline, higher = larger tumour
# [5] = endpoint: median survival time, dose: 50.0 mg/kg/injection, schedule: Q01DX009 (ip), vehicle: Klucel (hydroxypropylcellulose) (HPC), higher = longer survival
# [6] = endpoint: median survival time, dose: 100.0 mg/kg/injection, schedule: Q01DX009 (ip), vehicle: Klucel (hydroxypropylcellulose) (HPC), higher = longer survival
# [7] = endpoint: median survival time, dose: 200.0 mg/kg/injection, schedule: Q01DX009 (ip), vehicle: Klucel (hydroxypropylcellulose) (HPC), higher = longer survival
# [8] = endpoint: mean tumor weight, dose: 500.0 mg/kg/injection, schedule: Q01DX011 (ip), vehicle: other, higher = larger tumour
compound,measurement,setting,value
c1cc2n(n1)CCN2,T/C,"endpoint: mean tumor weight (est.), dose: 50.0 mg/kg/injection, schedule: Q01DX009 (ip), vehicle: saline, higher = larger tumour",56 % of control
same,T/C,"endpoint: mean tumor weight (est.), dose: 100.0 mg/kg/injection, schedule: Q01DX009 (ip), vehicle: saline, higher = larger tumour",37 % of control
same,T/C,"endpoint: mean tumor weight (est.), dose: 100.0 mg/kg/injection, schedule: Q04DX003 (ip), vehicle: saline, higher = larger tumour",70 % of control
same,T/C,"endpoint: mean tumor weight (est.), dose: 200.0 mg/kg/injection, schedule: Q01DX009 (ip), vehicle: saline, higher = larger tumour",36 % of control
same,T/C,"endpoint: mean tumor weight (est.), dose: 200.0 mg/kg/injection, schedule: Q04DX003 (ip), vehicle: saline, higher = larger tumour",79 % of control
same,T/C,"endpoint: mean tumor weight (est.), dose: 400.0 mg/kg/injection, schedule: Q04DX003 (ip), vehicle: saline, higher = larger tumour",57 % of control
same,T/C,[1],97 % of control
same,T/C,[2],84 % of control
same,T/C,[3],82 % of control
same,T/C,[4],7 % of control
same,T/C,"endpoint: median survival time, dose: 50.0 mg/kg/injection, schedule: Q01DX009 (ip), vehicle: saline, higher = longer survival",122 % of control
same,T/C,"endpoint: median survival time, dose: 100.0 mg/kg/injection, schedule: Q01DX009 (ip), vehicle: saline, higher = longer survival",100 % of control
same,T/C,"endpoint: median survival time, dose: 100.0 mg/kg/injection, schedule: Q04DX003 (ip), vehicle: saline, higher = longer survival",102 % of control
same,T/C,"endpoint: median survival time, dose: 200.0 mg/kg/injection, schedule: Q01DX009 (ip), vehicle: saline, higher = longer survival",100 % of control
same,T/C,"endpoint: median survival time, dose: 400.0 mg/kg/injection, schedule: Q04DX003 (ip), vehicle: saline, higher = longer survival",88 % of control
COc1ccc(OCC(O)CN2CCN(c3ccc(Cl)cc3)CC2)cc1 (stereo not drawn),T/C,"endpoint: median survival time, dose: 12.5 mg/kg/injection, schedule: Q01DX009 (ip), vehicle: Klucel (hydroxypropylcellulose) (HPC), higher = longer survival",90 % of control
same,T/C,"endpoint: median survival time, dose: 25.0 mg/kg/injection, schedule: Q01DX009 (ip), vehicle: Klucel (hydroxypropylcellulose) (HPC), higher = longer survival",87 % of control
same,T/C,[5],96 % of control
same,T/C,[6],90 % of control
same,T/C,[7],89 % of control
COC1C(O)CC(OC2CC(Oc3cc4cc5c(c(O)c4c(O)c3C)C(=O)[C@@H](OC3CC(OC4CC(OC6CC(C)(O)C(OC(C)=O)C(C)O6)C(O)C(C)O4)C(O)C(C)O3)[C@H]([C@H](OC)C(=O)[C@@H](O)[C@@H](C)O)C5)OC(C)C2OC(C)=O)OC1C (stereo partly drawn),T/C,"endpoint: mean tumor weight, dose: 33.0 micrograms/kg/injection, schedule: Q01DX011 (ip), vehicle: saline with Tween-80, higher = larger tumour",93 % of control
same,T/C,"endpoint: mean tumor weight, dose: 65.0 micrograms/kg/injection, schedule: Q01DX011 (ip), vehicle: saline with Tween-80, higher = larger tumour",82 % of control
same,T/C,"endpoint: mean tumor weight, dose: 130.0 micrograms/kg/injection, schedule: Q01DX011 (ip), vehicle: saline with Tween-80, higher = larger tumour",66 % of control
same,T/C,"endpoint: median survival time, dose: 0.02 mg/kg/injection, schedule: Q01DX011 (ip), vehicle: other, higher = longer survival",107 % of control
Nc1ncn(C2CC(O)C(CO)O2)c(=O)n1 (stereo not drawn),T/C,"endpoint: median survival time, dose: 0.05 mg/kg/injection, schedule: Q01DX009 (ip), vehicle: saline, higher = longer survival",102 % of control
same,T/C,"endpoint: median survival time, dose: 0.1 mg/kg/injection, schedule: Q01DX009 (ip), vehicle: saline, higher = longer survival",102 % of control and 109 % of control
same,T/C,"endpoint: median survival time, dose: 0.2 mg/kg/injection, schedule: Q01DX009 (ip), vehicle: saline, higher = longer survival",109 % of control and 112 % of control
same,T/C,"endpoint: median survival time, dose: 0.8 mg/kg/injection, schedule: Q01DX009 (ip), vehicle: Klucel (hydroxypropylcellulose) (HPC), higher = longer survival",167 % of control
C#C[C@]1(O)CC[C@H]2[C@@H]3CCc4cc(O)ccc4[C@H]3CC[C@@]21C,T/C,"endpoint: median survival time, dose: 1.25 mg/kg/injection, schedule: Q02DX009 (ip), vehicle: Klucel (hydroxypropylcellulose) (HPC), higher = longer survival",88 % of control
same,T/C,"endpoint: median survival time, dose: 2.5 mg/kg/injection, schedule: Q02DX009 (ip), vehicle: Klucel (hydroxypropylcellulose) (HPC), higher = longer survival",92 % of control
same,T/C,"endpoint: median survival time, dose: 5.0 mg/kg/injection, schedule: Q02DX009 (ip), vehicle: Klucel (hydroxypropylcellulose) (HPC), higher = longer survival",96 % of control
same,T/C,"endpoint: median survival time, dose: 10.0 mg/kg/injection, schedule: Q02DX009 (ip), vehicle: Klucel (hydroxypropylcellulose) (HPC), higher = longer survival",91 % of control and 101 % of control
same,T/C,"endpoint: median survival time, dose: 20.0 mg/kg/injection, schedule: Q02DX009 (ip), vehicle: Klucel (hydroxypropylcellulose) (HPC), higher = longer survival",104 % of control
same,T/C,"endpoint: median survival time, dose: 40.0 mg/kg/injection, schedule: Q02DX009 (ip), vehicle: Klucel (hydroxypropylcellulose) (HPC), higher = longer survival",108 % of control and 120 % of control
CS(=O)(=O)OCC(=O)NCCNC(=O)COS(C)(=O)=O,T/C,[1],98 % of control
same,T/C,[2],90 % of control
same,T/C,[3],94 % of control
same,T/C,[4],82 % of control
Cn1c(=O)[nH]c2nncnc2c1=O,T/C,"endpoint: median survival time, dose: 8.0 mg/kg/injection, schedule: Q01DX009 (ip), vehicle: water, higher = longer survival",108 % of control
same,T/C,"endpoint: median survival time, dose: 16.0 mg/kg/injection, schedule: Q01DX009 (ip), vehicle: water, higher = longer survival",86 % of control
same,T/C,"endpoint: median survival time, dose: 37.5 micrograms/kg/injection, schedule: Q01DX009 (ip), vehicle: water, higher = longer survival",123 % of control
same,T/C,"endpoint: median survival time, dose: 75.0 micrograms/kg/injection, schedule: Q01DX009 (ip), vehicle: water, higher = longer survival",123 % of control
same,T/C,"endpoint: median survival time, dose: 150.0 micrograms/kg/injection, schedule: Q01DX009 (ip), vehicle: water, higher = longer survival",111 % of control
same,T/C,"endpoint: median survival time, dose: 300.0 micrograms/kg/injection, schedule: Q01DX009 (ip), vehicle: water, higher = longer survival",123 % of control
NC(C/[N+]([O-])=N/O)C(=O)O (stereo not drawn),T/C,"endpoint: median survival time, dose: 8.78 mg/kg/injection, schedule: Q01DX010 (ip), vehicle: alkali diluted with saline, higher = longer survival",103 % of control and 105 % of control
same,T/C,"endpoint: median survival time, dose: 13.2 mg/kg/injection, schedule: Q01DX010 (ip), vehicle: alkali diluted with saline, higher = longer survival",120 % of control and 121 % of control
same,T/C,"endpoint: median survival time, dose: 19.8 mg/kg/injection, schedule: Q01DX010 (ip), vehicle: alkali diluted with saline, higher = longer survival",102 % of control
same,T/C,"endpoint: median survival time, dose: 29.6 mg/kg/injection, schedule: Q01DX010 (ip), vehicle: alkali diluted with saline, higher = longer survival",105 % of control
same,T/C,"endpoint: median survival time, dose: 44.4 mg/kg/injection, schedule: Q01DX010 (ip), vehicle: alkali diluted with saline, higher = longer survival",114 % of control and 116 % of control
same,T/C,"endpoint: median survival time, dose: 66.7 mg/kg/injection, schedule: Q01DX010 (ip), vehicle: alkali diluted with saline, higher = longer survival",117 % of control
same,T/C,"endpoint: median survival time, dose: 100.0 mg/kg/injection, schedule: Q01DX010 (ip), vehicle: alkali diluted with saline, higher = longer survival",98 % of control
same,T/C,"endpoint: median survival time, dose: 1000.0 mg/kg/injection, schedule: Q01DX001 (ip), vehicle: saline, higher = longer survival",96 % of control
Nc1nc(SN=Nc2ccc(S(=O)(=O)O)cc2)c2[nH]cnc2n1,T/C,"endpoint: mean tumor weight, dose: 1.0 mg/kg/injection, schedule: Q01DX011 (ip), vehicle: saline, higher = larger tumour",78 % of control
same,T/C,"endpoint: mean tumor weight, dose: 5.0 mg/kg/injection, schedule: Q01DX011 (ip), vehicle: saline, higher = larger tumour",65 % of control
same,T/C,"endpoint: mean tumor weight, dose: 9.0 mg/kg/injection, schedule: Q01DX011 (ip), vehicle: saline, higher = larger tumour",40 % of control
same,T/C,"endpoint: mean tumor weight, dose: 15.0 mg/kg/injection, schedule: Q01DX011 (ip), vehicle: saline, higher = larger tumour",40 % of control
COc1c(OC)c(OC)c2c(=O)cc(-c3ccc(OC(C)=O)cc3)oc2c1OC,T/C,"endpoint: mean tumor weight, dose: 50.0 mg/kg/injection, schedule: Q01DX010 (sc), vehicle: steriod suspending solution, higher = larger tumour",97 % of control
same,T/C,"endpoint: mean tumor weight, dose: 100.0 mg/kg/injection, schedule: Q01DX010 (sc), vehicle: steriod suspending solution, higher = larger tumour",74 % of control
same,T/C,"endpoint: mean tumor weight, dose: 200.0 mg/kg/injection, schedule: Q01DX010 (sc), vehicle: steriod suspending solution, higher = larger tumour",76 % of control
same,T/C,"endpoint: mean tumor weight, dose: 400.0 mg/kg/injection, schedule: Q01DX010 (sc), vehicle: steriod suspending solution, higher = larger tumour",77 % of control
CCCCCCCCCCCCCCCCCCOC(=O)CCSCCC(=O)OCCCCCCCCCCCCCCCCCC,T/C,"endpoint: mean tumor weight, dose: 133.0 mg/kg/injection, schedule: Q01DX011 (ip), vehicle: carboxymethylcellulose (CMC), higher = larger tumour",117 % of control
same,T/C,"endpoint: mean tumor weight, dose: 200.0 mg/kg/injection, schedule: Q01DX011 (ip), vehicle: carboxymethylcellulose (CMC), higher = larger tumour",88 % of control
same,T/C,"endpoint: mean tumor weight, dose: 300.0 mg/kg/injection, schedule: Q01DX011 (ip), vehicle: carboxymethylcellulose (CMC), higher = larger tumour",101 % of control
same,T/C,"endpoint: mean tumor weight, dose: 450.0 mg/kg/injection, schedule: Q01DX011 (ip), vehicle: carboxymethylcellulose (CMC), higher = larger tumour",86 % of control
same,T/C,[8],165 % of control
same,T/C,"endpoint: mean tumor weight, dose: 750.0 mg/kg/injection, schedule: Q01DX011 (ip), vehicle: other, higher = larger tumour",121 % of control
Nc1ccc2ccccc2c1N=Nc1ccccc1,T/C,[8],105 % of control
same,T/C,[5],104 % of control
same,T/C,[6],104 % of control
same,T/C,[7],98 % of control
same,T/C,"endpoint: median survival time, dose: 400.0 mg/kg/injection, schedule: Q01DX009 (ip), vehicle: Klucel (hydroxypropylcellulose) (HPC), higher = longer survival",95 % of control
COC(=O)[C@H]1[C@H]2C[C@@H]3c4[nH]c5cc(OC)ccc5c4CCN3C[C@H]2C[C@@H](OC(=O)c2cc(OC)c(OC)c(OC)c2)[C@@H]1OC,T/C,"endpoint: median survival time, dose: 0.25 mg/kg/injection, schedule: Q01DX009 (ip), vehicle: Klucel (hydroxypropylcellulose) (HPC), higher = longer survival",91 % of control
same,T/C,"endpoint: median survival time, dose: 0.5 mg/kg/injection, schedule: Q01DX009 (ip), vehicle: Klucel (hydroxypropylcellulose) (HPC), higher = longer survival",97 % of control and 243 % of control
same,T/C,"endpoint: median survival time, dose: 1.0 mg/kg/injection, schedule: Q01DX009 (ip), vehicle: Klucel (hydroxypropylcellulose) (HPC), higher = longer survival",103 % of control
same,T/C,"endpoint: median survival time, dose: 2.0 mg/kg/injection, schedule: Q01DX009 (ip), vehicle: Klucel (hydroxypropylcellulose) (HPC), higher = longer survival",96 % of control and 243 % of control
N/C(CCSc1ccccc1N=Cc1ccccc1O)=N/O,T/C,"endpoint: median survival time, dose: 3.13 mg/kg/injection, schedule: Q01DX009 (ip), vehicle: olive oil, sesame oil, peanut oil, higher = longer survival",87 % of control
CCOC(=O)C(=CNc1cccc(Cl)c1)C(=O)OCC,T/C,"endpoint: mean tumor weight, dose: 148.0 mg/kg/injection, schedule: Q01DX011 (ip), vehicle: other, higher = larger tumour",153 % of control
same,T/C,"endpoint: mean tumor weight, dose: 222.0 mg/kg/injection, schedule: Q01DX011 (ip), vehicle: other, higher = larger tumour",113 % of control
